According to the NIST ThermoML archive (doi:10.1016/j.jct.2013.10.031):
± gives the expanded uncertainty stated by the source.

Experiment: wn = mass fraction of the nth substance listed
Settings: Gas, Burnett expansion method

FCC(F)(F)F [1,1,1,2-tetrafluoroethane] + CCC
Settings | mass density [kg/m3]
272.14 K, 376.9 kPa, w2 = 0.4 | 12.2714 ± 0.73
272.14 K, 486.9 kPa, w2 = 0.4 | 16.3457 ± 0.75
275.01 K, 306 kPa, w2 = 0.6 | 8.178 ± 0.58
275.01 K, 398.5 kPa, w2 = 0.6 | 10.8743 ± 0.61
275.01 K, 514 kPa, w2 = 0.6 | 14.4598 ± 0.63
275.02 K, 233.7 kPa, w2 = 0.6 | 6.1499 ± 0.56
275.03 K, 233.5 kPa, w2 = 0.55 | 6.3604 ± 0.58
275.04 K, 177.6 kPa, w2 = 0.55 | 4.7832 ± 0.56
275.04 K, 259 kPa, w2 = 0.65 | 6.6072 ± 0.55
275.04 K, 397.9 kPa, w2 = 0.55 | 11.2458 ± 0.63
275.04 K, 513.5 kPa, w2 = 0.55 | 14.954 ± 0.67
275.05 K, 134.8 kPa, w2 = 0.55 | 3.597 ± 0.55
275.05 K, 197.5 kPa, w2 = 0.65 | 4.9688 ± 0.53
275.05 K, 305.8 kPa, w2 = 0.55 | 8.4571 ± 0.6
275.05 K, 338.2 kPa, w2 = 0.65 | 8.7857 ± 0.57
275.06 K, 150.2 kPa, w2 = 0.65 | 3.7365 ± 0.52
275.06 K, 438.6 kPa, w2 = 0.65 | 11.682 ± 0.58
276.01 K, 525 kPa, w2 = 0.5 | 16.127 ± 0.68
276.07 K, 240.8 kPa, w2 = 0.5 | 6.8235 ± 0.6
276.07 K, 314.5 kPa, w2 = 0.5 | 9.08914 ± 0.64
276.08 K, 138.3 kPa, w2 = 0.5 | 3.84563 ± 0.58
276.08 K, 182.4 kPa, w2 = 0.5 | 5.12246 ± 0.58
276.08 K, 408.6 kPa, w2 = 0.5 | 12.1069 ± 0.68
276.09 K, 131.9 kPa, w2 = 0.4 | 3.96275 ± 0.63
276.09 K, 173.8 kPa, w2 = 0.4 | 5.27854 ± 0.64
276.09 K, 228.4 kPa, w2 = 0.4 | 7.03132 ± 0.66
276.09 K, 299.1 kPa, w2 = 0.4 | 9.36594 ± 0.68
276.09 K, 389.5 kPa, w2 = 0.4 | 12.4758 ± 0.72
276.09 K, 503.4 kPa, w2 = 0.4 | 16.618 ± 0.74
276.23 K, 613 kPa, w2 = 0.45 | 19.9443 ± 0.76
276.24 K, 369.2 kPa, w2 = 0.45 | 11.24 ± 0.67
276.25 K, 215.6 kPa, w2 = 0.45 | 6.3345 ± 0.62
276.25 K, 282.9 kPa, w2 = 0.45 | 8.43787 ± 0.64
276.25 K, 478.6 kPa, w2 = 0.45 | 14.9718 ± 0.72
276.26 K, 163.8 kPa, w2 = 0.45 | 4.75547 ± 0.61
278.98 K, 613.4 kPa, w2 = 0.55 | 18.0169 ± 0.75
278.99 K, 431 kPa, w2 = 0.65 | 11.2429 ± 0.59
279 K, 193.1 kPa, w2 = 0.65 | 4.7818 ± 0.52
279 K, 253.6 kPa, w2 = 0.65 | 6.3584 ± 0.53
279 K, 331.6 kPa, w2 = 0.65 | 8.4549 ± 0.55
279 K, 555.1 kPa, w2 = 0.65 | 14.9493 ± 0.61
279.04 K, 478.7 kPa, w2 = 0.55 | 13.5464 ± 0.65
279.05 K, 201 kPa, w2 = 0.6 | 5.1513 ± 0.53
279.05 K, 264.1 kPa, w2 = 0.6 | 6.8498 ± 0.55
279.06 K, 152.4 kPa, w2 = 0.6 | 3.874 ± 0.53
279.06 K, 345.5 kPa, w2 = 0.6 | 9.1083 ± 0.58
279.06 K, 369.2 kPa, w2 = 0.55 | 10.1866 ± 0.6
279.06 K, 448.9 kPa, w2 = 0.6 | 12.1114 ± 0.61
279.06 K, 577.6 kPa, w2 = 0.6 | 16.1046 ± 0.65
279.07 K, 163.6 kPa, w2 = 0.55 | 4.3324 ± 0.55
279.07 K, 282.8 kPa, w2 = 0.55 | 7.6605 ± 0.58
279.08 K, 215.4 kPa, w2 = 0.55 | 5.7608 ± 0.56
280.01 K, 670.7 kPa, w2 = 0.4 | 22.729 ± 0.8
280.02 K, 180.8 kPa, w2 = 0.4 | 5.41974 ± 0.63
280.02 K, 237.8 kPa, w2 = 0.4 | 7.21933 ± 0.65
280.02 K, 311.5 kPa, w2 = 0.4 | 9.61644 ± 0.67
280.02 K, 405.9 kPa, w2 = 0.4 | 12.8096 ± 0.71
280.02 K, 524.7 kPa, w2 = 0.4 | 17.0629 ± 0.76
280.17 K, 150 kPa, w2 = 0.45 | 4.28073 ± 0.61
280.17 K, 197.2 kPa, w2 = 0.45 | 5.70206 ± 0.62
280.17 K, 436.6 kPa, w2 = 0.45 | 13.4767 ± 0.7
280.18 K, 257.8 kPa, w2 = 0.45 | 7.59526 ± 0.63
280.18 K, 336.4 kPa, w2 = 0.45 | 10.1172 ± 0.66
280.18 K, 562.4 kPa, w2 = 0.45 | 17.9508 ± 0.69
280.2 K, 176.2 kPa, w2 = 0.5 | 4.88417 ± 0.64
280.2 K, 228 kPa, w2 = 0.5 | 6.50598 ± 0.63
280.2 K, 295.2 kPa, w2 = 0.5 | 8.66625 ± 0.66
280.2 K, 382.2 kPa, w2 = 0.5 | 11.5437 ± 0.69
280.2 K, 490.7 kPa, w2 = 0.5 | 15.3768 ± 0.75
280.2 K, 626.5 kPa, w2 = 0.5 | 20.4828 ± 0.77
282.96 K, 514.9 kPa, w2 = 0.6 | 16.8632 ± 0.73
282.98 K, 397.4 kPa, w2 = 0.6 | 10.4251 ± 0.89
282.98 K, 629.9 kPa, w2 = 0.6 | 18.4329 ± 0.21
282.99 K, 232 kPa, w2 = 0.6 | 5.8957 ± 0.53
282.99 K, 301.9 kPa, w2 = 0.65 | 7.5146 ± 0.53
282.99 K, 304.4 kPa, w2 = 0.6 | 7.8397 ± 0.55
